Patent publication US20240425867A1, “NUCLEIC ACID-BASED ASSEMBLY AND USES THEREOF” (Rheinische Friedrich-Wilhelms-Universität Bonn, priority 2016, published 2024)
Where “and” joins values, the source holds several entries; their conditions need not be identical. Equal entries are not always repeated.

Experiments:
H1838 cells [1] = details: DxR 8 μM, 37° C., 2 h, non-irradiated
Protocol: For flow cytometry analysis of HyApNc-mediated DxR uptake, the H1838 cells (1×10^5 cells/well) were seeded for 24 h at 37° C. […] The plates were then incubated for 2 h at 37° C. Afterwards, the cells were detached from the plates by trypsinization and transferred to FACS tubes. The cells were then washed twice by centrifugation with 0.5 mL buffer. Afterwards the cell pellets were resuspended in 100 μL 1×PBS buffer and cither irradiated with UV light for 5 minutes (_=365 nm, 350 mW/cm^2) or not irradiated before subjected to FACS analysis. Fluorescence emissions of the internalized DxR were recorded with a 585/42-nm band-pass filter.

[2] = test system: NCI-H1838 lung cancer cells; test: Cell viability (MTT) assay, dose dependent; type: cell-based; details: Homo sapiens, free DxR alone (control), MTT after 24 h
Protocol: To assess the cytotoxicity of free DxR and HyApNc-DxR in NCI-H1838 lung cancer cells, the H1838 cells (2×10^4 cells/well) were seeded in a 96 well plate and grown for 24 h. The cells were then washed with 1×PBS (200 μL) and subsequently treated with i) free DxR (as control), ii) HyApNc-DxR or iii) HyApNc.mut-DxR in a dose dependent way with a final DxR concentration ranging from 0.125μM to 50 μM per well. After 2 h of post-treatment, the cells were washed; the RPMI medium was replaced with a fresh RPMI medium, and subsequently either irradiated with UV light for 5 minutes (_=365 nm; 350 mW/cm^2), or not irradiated. Afterwards the cells were incubated for another 24 h at 37° C.
Then for both experiments, 15 μL of a 3-(4,5-dimethylthiazol-2-yl)-2,5-diphenyltetrazolium bromide (MTT) stock solution (5 mg/mL) was added to each well and the cells were incubated at 37° C. for 6 hours. After 6 h post-tretment with MTT solutions, 100 μL of the SDS-HCL solution was added to each well and mixed thoroughly with a pipette and incubated at 37° C. for an additional 12 hours. Finally the absorbance was measured at λ=570 nm by using a Tecan Infinite® M1000 PRO microplate reader.

H1838 cells [3] = test: Confocal microscopy of photo-triggered DxR release in cells; type: cell-based, human; details: DxR 40 μM, 37° C., 2 h, without UV irradiation
Protocol: In vitro cell imaging of the cell internalization studies were performed using fluorescence microscopy. Prior to each experiment one 70 to 80% confluent flask was trypsinised and suspended with 10 ml of cell medium. 10 μL of the cell solution was pipetted onto a haemocytometer and the cells were counted. Twenty-four hours prior to the internalization experiments approximately 10,000 NSCLC cells were seeded in 96-well glass bottom multiwell cell culture plates (MatTek® Corporation). The plates were then incubated for 24 hours at 37° C. in 5% CO2-atmosphere. […]
To verify the HyApNc-mediated selective transport of DxR to target cells and its light-triggered release from motif 4, we monitored the fluorescence signal of DxR within and outside of the cell nuclei of H1838 cells that were treated with either free DxR (as control) or with HyApNc-DxR (see Example 1 for details of DxR loading), while keeping the DxR concentrations in the bound and the unbound form fixed at 40 μM (5 μM HyApNc carrying 8 equivalents of DxR). […] When control experiments were performed with a construct lacking DMAB (HyApNcw/oAz-DxR), near-identical DxR fluorescence signals are predominantly observed in the cytosol of the cells with and without UV exposure (FIG. 24A, IV-V).

cMet [4] = biological target: T1, cMet (Homo sapiens, UniProt P08581); test: Filter retention assay with 32P-labeled aptamer; type: binding; details: filter retention assays
T1 construct: cMet-Fc, which represents the ectodomain of cMet fused to the Fc domain of human IgG1 was purchased from R&D Systems; purchased R&D Systems
Source text: The anti-cMet aptamer trCLN3, a 40 nucleotide DNA oligonucleotide rich in guanine sequence, is known to form two intramolecular G-quadruplex structure within the G-rich segment of the aptamer. The G-quadruplex structure in trCLN3 is believed to play a role in target recognition and binding to cMet. […] See J. Vinkenborg et al., Angew Chem Int Ed. 2012, […], 9176-9180; which reference is incorporated herein in its entirety. Binding affinity of trCLN3.mut, a control sequence with a guanine double-point mutation corresponding to G7 and G25 was further verified by filter retention assays.

[5] = Serum stability in PBS-buffered human blood serum (PAGE of 32P-labeled aptamer); type: in vitro ADME; details: 10% PBS-buffered HBS, 37° C., 0 to 72 h
Protocol: (§1) Serum stabilities of trCLN3, its two point mutant non-binding variant trCLN3.mut and their corresponding lipid-functionalized derivatives trCLN3-L4 and trCLN3.mut-L4 were investigated in fetal calf serum (FCS) and human blood serum. For this purpose, the aptamer motifs were labeled at their 5′-end with ^32P to form radiolabeled oligonucleotides. The degradation tests of all the aptamer motifs were performed for 60-72 h at 37°° C. 6 pmol (12 μl of 0.5 μM) of the radio-labeled aptamer (5′-end-labeled with γ-^32P) was incubated in a volume of 300 μl freshly thawed PBS-buffered FCS or human blood serum (270 μl serum+30 μl 10×PBS). For each measurement, 10 μl of the samples were removed, mixed with 90 μl of gel loading buffer (80% formamide+5 mM EDTA+0.01% SDS) and subsequently stored at −20° C. Aliquots of samples were taken after indicated time intervals of 0, 0.3, 1.5, 3, 6, 24, 48, 60 and 72h respectively. The serum stability of the aptamer in FCS or in HBS at different time intervals were analyzed on a denaturing PAGE by loading 10 μl of each sample onto a 10% TAE-Urea gel and running the gels for 90 minutes at 350 V. Gels were wrapped in clingfilm and exposed to a phosphorimager screen in a closed cassette over a period of 12 h and finally the residual intact aptamer bands were analyzed by scanning the screen in a phosphorimage-scanner (FujiFilm FLA 3000). Intensities of the residual intact aptamer bands were calculated applying AIDA image analyzer software program. Serums half-lives of the selected aptamers were determined by using a half-life curve-fitting data analysis program (GraphPad Prism).

[6] = Serum stability in PBS-buffered fetal calf serum (PAGE of 32P-labeled aptamer); type: in vitro ADME; details: 10% PBS-buffered FCS, 37° C., 0 to 72 h
Protocol: as §1

cMet [7] = biological target: T1, cMet; test: Competitive filter-binding assay against γ-32P-labeled trCLN3; details: competition with γ-32P-trCLN3, cMet ~50 nM, competitor 1 μM-25 pM, 37° C.
Protocol: To test the effect of lipid-modification on trCLN3 binding properties, we determined IC50 values for each trCLN3 derivative by a competitive filter retention assay in which varying concentrations of unlabeled 5′-(1-dodecynyl)-functionalized trCLN3 aptamers competed with constant amounts of γ-^32P-labeled trCLN3 in binding to cMet. Two control experiments were also performed using unlabeled trCLN3 and its two point mutant variant trCLN3.mut as competitors.
First, the trCLN3 motif was 5′-end-labeled with γ-^32P ATP using T4 polynucleotide kinase. An aliquot of 20 μL solution containing 50 pmol trCLN3. 6.7 pmol γ-^32P ATP and 20 U T4 polynucleotide kinase in 1× polynucleotide kinase buffer (New England Biolabs) was incubated at 37° C. for 45 min. followed by removal of unreacted γ-^32P ATP using an Illustra G-25 microspin column (GE Healthcare. München, Germany). The purity of the radiolabeled aptamer was confirmed using a 10% PAGE-gel.
0.25 mg/ml BSA. 2 mM MgCl2 in 1×PBS, pH 7.4. […] Residual radioactivity due to cMet bound labeled aptamers was quantified using Fujifilm Fla-3000 PhosphorImager and AIDA software. The curves were fitted with GraphPadPrism 3.02 plotting non-linear regression curve and the IC50 values have been calculated assuming a competition for single binding site.

cMet [8] = biological target: T1, cMet; details: binding to HGFR (cMet); read-out: dissociation constant (Kd); cited from earlier work

T1 sequence (P08581 25-932 limits assumed): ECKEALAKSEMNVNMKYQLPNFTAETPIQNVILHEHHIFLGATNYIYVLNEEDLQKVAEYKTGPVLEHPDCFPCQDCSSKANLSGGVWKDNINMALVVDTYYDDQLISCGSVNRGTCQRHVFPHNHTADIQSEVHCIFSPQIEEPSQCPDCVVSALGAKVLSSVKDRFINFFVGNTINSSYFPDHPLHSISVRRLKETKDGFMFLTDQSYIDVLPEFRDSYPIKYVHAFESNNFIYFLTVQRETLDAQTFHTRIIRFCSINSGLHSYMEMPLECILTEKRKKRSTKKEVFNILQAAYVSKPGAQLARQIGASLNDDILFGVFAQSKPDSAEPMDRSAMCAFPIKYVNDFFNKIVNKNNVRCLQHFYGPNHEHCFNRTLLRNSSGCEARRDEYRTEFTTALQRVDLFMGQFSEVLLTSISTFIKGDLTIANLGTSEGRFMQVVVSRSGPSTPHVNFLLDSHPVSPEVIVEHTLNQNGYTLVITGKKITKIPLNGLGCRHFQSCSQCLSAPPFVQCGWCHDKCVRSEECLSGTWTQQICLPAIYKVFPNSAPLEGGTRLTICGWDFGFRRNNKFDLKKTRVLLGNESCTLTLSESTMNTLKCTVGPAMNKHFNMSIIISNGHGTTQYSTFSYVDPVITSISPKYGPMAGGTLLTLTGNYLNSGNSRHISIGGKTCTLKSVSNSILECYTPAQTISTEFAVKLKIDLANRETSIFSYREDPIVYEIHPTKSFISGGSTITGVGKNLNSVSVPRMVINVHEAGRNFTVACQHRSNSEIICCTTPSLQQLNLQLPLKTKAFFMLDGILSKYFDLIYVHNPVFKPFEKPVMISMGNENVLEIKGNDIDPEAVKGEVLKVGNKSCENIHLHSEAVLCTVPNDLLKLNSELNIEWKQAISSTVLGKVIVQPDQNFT

Row | IC50 [2] | Compound | increase in mean cellular fluorescence intensity vs equivalent dose of HyApNc-DxR or HyApNcw/oAz-DxR (H1838 cells [1]) [fold] | DxR fluorescence in cell nuclei (confocal) (H1838 cells [3]) | binding to cMet (cMet [4]) | serum half-life (t1/2) [5] [h] | serum half-life (t1/2) [6] [h] | IC50 (cMet [7]) [nM] | Kd (cMet [8]) [nM]
1 | 8 µM and 4.7 µg/mL | COc1cccc2c1C(=O)c1c(O)c3c(c(O)c1C2=O)C[C@@](O)(C(=O)CO)C[C@@H]3O[C@H]1C[C@H](N)[C@H](O)[C@H](C)O1 [free DxR, (7S,9S)-7-[(2R,4S,5S,6S)-4-amino-5-hydroxy-6-methyloxan-2-yl]oxy-6,9,11-trihydroxy-9-(2-hydroxyacetyl)-4-methoxy-8,10-dihydro-7H-tetracene-5,12-dione] | 5 | Strong DxR fluorescence | – | – | – | – | –
2 | – | trCLN3.mut: non-binding control sequence of trCLN3 with guanine double-point mutation at G7 and G25 (DNA TGGATGATAGCTCGGTCGGGGTGGATGGGTTGGCAAGTCT; DNA, backbone and methylation of C not given here) | – | – | almost no binding | 1.9 | 2.8 | – | –
3 | – | trCLN3: 40-nucleotide anti-cMet DNA aptamer, 5′-TGGATGGTAGCTCGGTCGGGGTGGGTGGGTTGGCAAGTCT-3′ (DNA, backbone and methylation of C not given here) | – | – | – | 4.9 | 8.7 | 56 | 38
